What was measured:
[1] = target: T1, TAOK2 (Homo sapiens, UniProt Q9UL54); assay: KAM-matrix competition in K562 lysate; type: binding;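 for 0.001 uM KAM: median log10 fold change of treatment over DMSO control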;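 for 0.01 uM KAM: median log10 fold change of treatment over DMSO control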;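 for 0.1 uM KAM: median log10 fold change of treatment over DMSO control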;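 for 1 uM KAM: median log10 fold change of treatment over DMSO control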;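 for 10 uM KAM: median log10 fold change of treatment over DMSO control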
T1 construct: endogenous in cells; host or cells: K562
T1 sequence (Q9UL54 1-1235): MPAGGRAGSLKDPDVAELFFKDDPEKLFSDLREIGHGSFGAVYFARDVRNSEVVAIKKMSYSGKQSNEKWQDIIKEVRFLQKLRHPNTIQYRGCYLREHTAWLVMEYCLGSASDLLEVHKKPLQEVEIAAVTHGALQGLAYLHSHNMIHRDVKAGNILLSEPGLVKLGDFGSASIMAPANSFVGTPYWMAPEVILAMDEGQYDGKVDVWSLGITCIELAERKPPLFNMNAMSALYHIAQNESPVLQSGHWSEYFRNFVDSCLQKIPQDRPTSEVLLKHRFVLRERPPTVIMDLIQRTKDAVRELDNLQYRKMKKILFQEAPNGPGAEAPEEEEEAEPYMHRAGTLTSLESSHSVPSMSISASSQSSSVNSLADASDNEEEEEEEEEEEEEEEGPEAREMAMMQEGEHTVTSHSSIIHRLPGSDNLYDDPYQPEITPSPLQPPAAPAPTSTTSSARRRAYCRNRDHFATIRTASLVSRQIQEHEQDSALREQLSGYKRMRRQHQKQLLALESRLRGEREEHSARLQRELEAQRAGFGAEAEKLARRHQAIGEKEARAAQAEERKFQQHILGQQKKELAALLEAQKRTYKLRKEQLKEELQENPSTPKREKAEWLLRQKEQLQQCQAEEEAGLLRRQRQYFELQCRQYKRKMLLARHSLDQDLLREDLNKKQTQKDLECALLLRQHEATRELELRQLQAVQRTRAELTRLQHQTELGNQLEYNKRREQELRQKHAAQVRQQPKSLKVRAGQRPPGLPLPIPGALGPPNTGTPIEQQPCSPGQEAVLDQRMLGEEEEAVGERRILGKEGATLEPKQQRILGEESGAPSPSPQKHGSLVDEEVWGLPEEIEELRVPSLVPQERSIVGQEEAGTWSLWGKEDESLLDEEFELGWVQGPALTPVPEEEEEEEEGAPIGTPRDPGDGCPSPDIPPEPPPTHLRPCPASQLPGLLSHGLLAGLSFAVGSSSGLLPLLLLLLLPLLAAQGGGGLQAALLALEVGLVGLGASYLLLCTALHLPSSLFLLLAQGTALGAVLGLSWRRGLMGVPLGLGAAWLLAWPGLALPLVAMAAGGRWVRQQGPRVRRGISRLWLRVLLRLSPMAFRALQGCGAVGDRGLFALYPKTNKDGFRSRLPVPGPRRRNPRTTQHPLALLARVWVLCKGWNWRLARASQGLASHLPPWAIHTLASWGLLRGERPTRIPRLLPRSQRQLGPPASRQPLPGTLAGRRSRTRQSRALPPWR
Procedure: (§1) Supplement 12953_2017_125_MOESM1_ESM.zip/MS_Supp Info.xlsx, sheet "KAM" | column: 10 uM KAM; 1 uM KAM; 0.1 uM KAM; 0.01 uM KAM; 0.001 uM KAM; RB50

[2] = target: T2, MAP3K3 (Homo sapiens, UniProt Q99759); assay: KAM-matrix competition in K562 lysate; type: binding
T2 construct: endogenous in cells; host or cells: K562 cell lysate
T2 sequence (Q99759 1-626): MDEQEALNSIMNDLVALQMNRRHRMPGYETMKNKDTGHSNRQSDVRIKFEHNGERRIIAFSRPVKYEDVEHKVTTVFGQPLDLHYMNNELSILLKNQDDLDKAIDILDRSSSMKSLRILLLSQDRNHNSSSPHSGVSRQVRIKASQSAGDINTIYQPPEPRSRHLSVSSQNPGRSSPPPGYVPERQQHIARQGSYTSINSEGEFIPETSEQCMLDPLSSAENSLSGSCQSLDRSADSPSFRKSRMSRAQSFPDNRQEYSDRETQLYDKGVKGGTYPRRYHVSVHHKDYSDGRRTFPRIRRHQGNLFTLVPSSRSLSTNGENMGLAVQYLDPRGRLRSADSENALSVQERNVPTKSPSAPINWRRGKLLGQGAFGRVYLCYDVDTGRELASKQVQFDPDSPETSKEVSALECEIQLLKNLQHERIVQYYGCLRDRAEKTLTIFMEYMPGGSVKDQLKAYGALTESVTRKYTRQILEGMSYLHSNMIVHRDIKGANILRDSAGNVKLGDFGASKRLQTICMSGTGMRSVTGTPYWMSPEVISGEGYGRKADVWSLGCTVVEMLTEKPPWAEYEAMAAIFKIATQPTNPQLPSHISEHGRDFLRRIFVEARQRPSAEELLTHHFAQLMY
Procedure: as §1

Question: How did the IC50 ([1]; KAM 0.001-10 uM, read-out: RB50 (the source's name)) turn out when `N#CCc1ccc(Nc2nc(NCCCN)cc(Nc3cc(C4CC4)[nH]n3)n2)cc1` [KAM] was run?
Answer: 6.63 µM

Question: And the “0.001 uM KAM” value ([1]; relative to 0 uM KAM = 0)?
Answer: -0.0603

Question: What about the “0.01 uM KAM” value ([1]; relative to 0 uM KAM = 0) of the same compound?
Answer: -0.04102

Question: What about the “0.1 uM KAM” value ([1]; relative to 0 uM KAM = 0) of the same compound?
Answer: -0.1359

Question: What about the “1 uM KAM” value ([1]; relative to 0 uM KAM = 0) of the same compound?
Answer: -0.1664

Question: And the “10 uM KAM” value ([1]; relative to 0 uM KAM = 0)?
Answer: -0.2974

Question: What about the “median Log10 fold change” value ([2]; 0.001 uM KAM) of the same compound?
Answer: -0.04647

Question: What about the “median Log10 fold change” value ([2]; 0.01 uM KAM) of the same compound?
Answer: 0.002946

Question: What about the “median Log10 fold change” value ([2]; 0.1 uM KAM) of the same compound?
Answer: -0.1524

Question: And the “median Log10 fold change” value ([2]; 1 uM KAM)?
Answer: -0.3206

Question: And the “median Log10 fold change” value ([2]; 10 uM KAM)?
Answer: -0.4381

Question: What about the IC50 ([2]; read-out: RB50 (the source's name)) of the same compound?
Answer: 1 µM

Reference: PMC5513037, “Examining the influence of specificity ligands and ATP-competitive ligands on the overall effectiveness of bivalent kinase inhibitors” (Proteome Science, 2017)
